Data on 22 molecules can be found in patent US12673954B2 (BRISTOL-MYERS SQUIBB COMPANY, priority 2021, dated 2026).

Like-named read-outs stand apart in the source and are kept apart here.

For test [1], the system named is NF-κB pathway, THP1-Dual™ cells. Description: STING reporter assay in THP1-Dual cells, NF-κB pathway (SEAP, QUANTI-Blue). It counts as cell-based, human. Conditions: THP1-Dual cells, 10% human plasma, 20 hours, SEAP, 100% activation = 100 μM cGAMP, read-out: NFkB (EC50 μM). Put shortly:
(§1)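 Activation normalised between DMSO-only baseline and 100 μM cGAMP maximum, after 20 h compound exposure (starting at 100 μM final) at 37° C, 5% CO2. Supernatant SEAP (QUANTI-Blue, OD620) reports NF-κB; secreted luciferase (QUANTI-Luc, RLU at 5 min) reports IRF.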

For test [2], the system named is IRF pathway, THP1-Dual™ cells. Put plainly: STING reporter assay in THP1-Dual cells, IRF pathway (Lucia luciferase, QUANTI-Luc). It counts as cell-based, human. Conditions: THP1-Dual cells, 10% human plasma, 20 hours, Lucia luciferase, 100% activation = 100 μM cGAMP, read-out: IRF (EC50 μM). Put shortly:
as §1
In general terms: Reporter assays use an easily measured gene product as a stand-in for the process of interest.

Take `O=C(OCC(F)(F)F)c1cc(Br)cc2cc(CNC(=O)c3cnn4cccnc34)oc12` [EXAMPLE 269, 2,2,2-Trifluoroethyl 5-bromo-2-((pyrazolo[1,5-a]pyrimidine-3-carboxamido)methyl)benzofuran-7-carboxylate]: the EC50 (usually the concentration giving half of the maximal effect) in test [1] (Homo sapiens, THP1-Dual, 20 h) came out at 1.1 µM; in test [2] (Homo sapiens, THP1-Dual, 20 h) it was 1.1 µM.
For `C[C@@H](OC(=O)c1c(F)ccc2cc(CNC(=O)c3cnn4cccnc34)oc12)C(F)(F)F` [EXAMPLE 285, (R)-1,1,1-Trifluoropropan-2-yl 6-fluoro-2-((pyrazolo[1,5-a]pyrimidine-3-carboxamido)methyl)benzofuran-7-carboxylate], the half-maximal effective concentration (EC50) amounted to 1.9 µM in test [1] (Homo sapiens, THP1-Dual, 20 h) and 1.4 µM in test [2] (Homo sapiens, THP1-Dual, 20 h).
For the molecule `COC(=O)c1cccc2cc(Cn3ccc4ccncc4c3=O)oc12` [EXAMPLE 7, Methyl 2-((1-oxo-2,7-naphthyridin-2(1H)-yl)methyl)benzofuran-7-carboxylate], the half-maximal effective concentration (EC50) worked out at 4.1 µM in test [1] (Homo sapiens, THP1-Dual, 20 h) and 4.3 µM in test [2] (Homo sapiens, THP1-Dual, 20 h).
As for `COC(=O)c1cc(F)cc2cc(CN3Cc4ncncc4C3=O)oc12` [EXAMPLE 44, Methyl 5-fluoro-2-((5-oxo-5,7-dihydro-6H-pyrrolo[3,4-d]pyrimidin-6-yl)methyl)benzofuran-7-carboxylate], the EC50 amounted to 13 µM in test [1] (Homo sapiens, THP1-Dual, 20 h) and 12 µM in test [2] (Homo sapiens, THP1-Dual, 20 h).
For `O=C(O)c1cc(Cl)cc2c(Cl)c(CNC(=O)c3cnn4cccnc34)oc12` [EXAMPLE 174, 3,5-Dichloro-2-((pyrazolo[1,5-a]pyrimidine-3-carboxamido)methyl)benzofuran-7-carboxylic acid], in that order: 91 µM and 83 µM.
In the case of `COC(=O)c1cccc2cc(CN3Cc4cccnc4C3=O)oc12` [EXAMPLE 1, Methyl 2-((7-oxo-5,7-dihydro-6H-pyrrolo[3,4-b]pyridin-6-yl)methyl)benzofuran-7-carboxylate], the EC50 in test [1] (Homo sapiens, THP1-Dual, 20 h) came to 98 µM; in test [2] (Homo sapiens, THP1-Dual, 20 h) it was 96 µM.
On the same counts, the results for `COC(=O)c1cc(C)cc2c(Cl)c(CNC(=O)c3cnn4cc(C)cnc34)oc12` [EXAMPLE 119, Methyl 3-chloro-5-methyl-2-((6-methylpyrazolo[1,5-a]pyrimidine-3-carboxamido)methyl)benzofuran-7-carboxylate] are 2.6 µM and 2.6 µM.
On the same counts, the results for `O=C(Cc1cc(Br)cc2cc(CNC(=O)c3cnn4cccnc34)oc12)OCC(F)(F)F` [EXAMPLE 270, 2,2,2-Trifluoroethyl 2-(5-bromo-2-((pyrazolo[1,5-a]pyrimidine-3-carboxamido)methyl)benzofuran-7-yl)acetate] are 36 µM and 30 µM.
Consider `Cc1ccc(C(=O)OCC(F)(F)F)c2oc(CNC(=O)c3cnn4cccnc34)cc12` [EXAMPLE 358, 2,2,2-Trifluoroethyl 4-methyl-2-((pyrazolo[1,5-a]pyrimidine-3-carboxamido)methyl)benzofuran-7-carboxylate], for which the concentration for a half-maximal effect (EC50) was 2 µM in test [1] (Homo sapiens, THP1-Dual, 20 h) and 2.9 µM in test [2] (Homo sapiens, THP1-Dual, 20 h).
For `CCCn1cncc(C(=O)NCc2cc3cc(Cl)cc(C(=O)OC)c3o2)c1=O` [Example 67, Methyl 5-chloro-2-((1-propyl-6-oxo-1,6-dihydropyrimidine-5-carboxamido)methyl)benzofuran-7-carboxylate], in that order: 32 µM and 20 µM.
For the molecule `COC(=O)c1cc(Cl)cc2cc(CNC(=O)c3cnn4ccc(C)nc34)oc12` [Example 54, Methyl 5-chloro-2-((5-methylpyrazolo[1,5-a]pyrimidine-3-carboxamido)methyl) benzofuran-7-carboxylate], the EC50 in test [1] and in test [2] was 2.6 µM in each case.
`COc1cc(C(=O)OC(OC)C(F)(F)F)c2oc(CNC(=O)c3cnn4cccnc34)cc2c1` (racemic) [EXAMPLE 281, 2,2,2-Trifluoro-1-methoxyethyl 5-methoxy-2-((pyrazolo[1,5-a]pyrimidine-3-carboxamido)methyl)benzofuran-7-carboxylate]: the concentration giving a half-maximal response (EC50) came to 14 µM in test [1] (Homo sapiens, THP1-Dual, 20 h) and 11 µM in test [2] (Homo sapiens, THP1-Dual, 20 h).
`O=C(OCC(F)(F)F)c1cc(Cl)cc2cc(CN3CCc4ccncc4C3=O)oc12` [EXAMPLE 370, 2,2,2-Trifluoroethyl 5-chloro-2-((1-oxo-3,4-dihydro-2,7-naphthyridin-2(1H)-yl)methyl)benzofuran-7-carboxylate]: the concentration giving a half-maximal response (EC50) in test [1] (Homo sapiens, THP1-Dual, 20 h) worked out at 16 µM; in test [2] (Homo sapiens, THP1-Dual, 20 h) it was 13 µM.
On the same counts, the results for `O=C(Oc1ccccc1)c1cc(Cl)cc2cc(CNC(=O)c3cnn4cccnc34)oc12` [EXAMPLE 254, Phenyl 5-chloro-2-((pyrazolo[1,5-a]pyrimidine-3-carboxamido)methyl)benzofuran-7-carboxylate] are 0.88 µM and 0.87 µM.
As to `CC(OC(=O)c1cc(F)cc2cc(CNC(=O)c3cnc4cccnn34)oc12)C(F)(F)F` (single isomer, unassigned) [EXAMPLE 316, 1,1,1-Trifluoropropan-2-yl 5-fluoro-2-((imidazo[1,2-b]pyridazine-3-carboxamido)methyl)benzofuran-7-carboxylate], the EC50 in test [1] turned out to be 5.9 µM; in test [2] it was 4.8 µM.
`CC(C)(C)OC(=O)N1CC(OC(=O)c2cc(Cl)cc3cc(CNC(=O)c4cnn5cccnc45)oc23)C1` [EXAMPLE 247, Tert-butyl 3-((5-chloro-2-((pyrazolo[1,5-a]pyrimidine-3-carboxamido)methyl)benzofuran-7-carbonyl)oxy)azetidine-1-carboxylate]: the half-maximal effective concentration (EC50) in test [1] (Homo sapiens, THP1-Dual, 20 h) came to 13 µM; in test [2] (Homo sapiens, THP1-Dual, 20 h), 9 µM.
For `COC(=O)c1cc(O)cc2cc(CN3Cc4ccncc4C3=O)oc12` [EXAMPLE 104, Methyl 5-hydroxy-2-((3-oxo-1,3-dihydro-2H-pyrrolo[3,4-c]pyridin-2-yl)methyl)benzofuran-7-carboxylate], in that order: 37 µM and 63 µM.
On to `O=C(OCCOCCO)c1cc(Cl)cc2cc(CNC(=O)c3cnn4cccnc34)oc12` [EXAMPLE 249, 2-(2-Hydroxyethoxy)ethy1 5-chloro-2-((pyrazolo[1,5-a]pyrimidine-3-carboxamido)methyl)benzofuran-7-carboxylate], for which the EC50 stood at 2.5 µM in test [1] (Homo sapiens, THP1-Dual, 20 h) and 2.4 µM in test [2] (Homo sapiens, THP1-Dual, 20 h).
On the same counts, the results for `COC(=O)c1cc(Cl)cc2cc(CNC(=O)c3cncc4c3ncn4C)oc12` [Example 69, Methyl 5-chloro-2-((3-methyl-3H-imidazo[4,5-c]pyridine-7-carboxamido)methyl)benzofuran-7-carboxylate] are 2.3 µM and 1.3 µM.
For `COC(=O)c1cc(F)cc2cc(CN3CCc4ccncc4C3=O)oc12` [EXAMPLE 36, Methyl 5-fluoro-2-((1-oxo-3,4-dihydro-2,7-naphthyridin-2(1H)-yl)methyl)benzofuran-7-carboxylate], in that order: 4.1 µM and 3.6 µM.
Consider `COC(=O)c1cccc2cc(CNC(=O)c3cncnc3OC)oc12` [EXAMPLE 16, Methyl 2-((4-methoxypyrimidine-5-carboxamido)methyl)benzofuran-7-carboxylate], for which the 50% effective concentration (EC50) in test [1] (Homo sapiens, THP1-Dual, 20 h) was 9.3 µM; in test [2] (Homo sapiens, THP1-Dual, 20 h) it was 6.8 µM.
For `O=C(OCC(F)(F)F)c1cccc2cc(CNC(=O)c3cnn4cccnc34)oc12` [EXAMPLE 217, 2,2,2-Trifluoroethyl 2-((pyrazolo[1,5-a]pyrimidine-3-carboxamido)methyl)benzofuran-7-carboxylate], in that order: 1.6 µM and 1.3 µM.
